Data reported in patent US9926354B2, “Amyloid precursor protein (APP) based Ã#-secretase inhibitor peptides, and methods of use” (UNIVERSITY OF SOUTH FLORIDA, priority 2014, dated 2018).

Legend:
[1] = system: CHO cells over-expressing human Swedish mutant APP (CHO/APPswe); assay: Aβ and sAPPα production in cultured media of CHO/APPswe cells by ELISA; assay type: cell-based, Chinese hamster; settings: 20 μg/mL, 24 hours
Protocol: (§1) Cell Culture—Chinese hamster ovary (CHO) cells engineered to express wild-type human APP (CHO/APPwt cells) or Swedish mutant human APP (CHO/APPswe cells) were kindly provided by Dr. Stefanie Hahn and Dr. Sascha Weggen (University of Heinrich Heine, Dusseldorf, Germany). As described previously (Obregon et al., 2012), these cells were cultured in Dulbecco's modified Eagle's medium (DMEM) with 10% fetal bovine serum (FBS), 1 mM sodium pyruvate, and 100 units/mL of penicillin and streptomycin.
(§2) To confirm the binding of APPsweBBP with BACE1, CHO/APPwt cells were plated in 8-well chambers (5×10^5/well), incubated with TAT-APPsweBBP-biotin or APPsweBBP-biotin at 20 μM for 30 minutes, fixed with 4% paraformaldehyde for 20 minutes, washed and permeabilized with 0.5% Triton X-100. Following application of blocking buffer, these cells were stained with mouse anti-BACE1 and rabbit anti-biotin antibodies overnight at 4° C. for immunocytochemistry analysis. In order to determine the inhibitory effects of TAT-APPsweBBP on BACE1-mediated APP β-cleavage and subsequent Aβ production, both CHO/APPwt and CHO/APPswe cells were plated in 24 well-plates (3×10^5/well) and treated with TAT-APPsweBBP at 0-20 μM for 24 hours. The cultured media were collected for Aβ analysis by enzyme-linked immunosorbent assay (ELISA) and sAPPα analysis by ELISA and Western blot (WB). Cell lysates were also prepared for analysis of APP amyloidogenic processing by WB.
(§3) ELISA—Mouse brains were homogenized in ice-cold lysis buffer for 30 seconds using a Minilys tissue homogenizer (Bertin Technologies, Montigny-le-Bretonneux, France) set at high speed, allowed to stand for 15 minutes at 4° C., and centrifuged at 15,000 rpm for 30 minutes. Soluble Aβ1-40/42 species and sAPPα were directly detected in cultured cell media or brain homogenates using the Aβ1-40/42 (Invitrogen) and sAPPα ELISA kits (IBL-America, Minneapolis, Minn., USA).
(§4) To further examine the ability of the Swedish mutant APP BACE1 binding peptide/Tat fusion peptides to decrease Aβ production, CHO cells overexpressing either human wild-type APP (CHO/APPwt cells) or Swedish mutant APP (hereinafter referred to as “CHO/APPswe cells”) are treated with a variety of APP-based BACE1 inhibitor peptides, as shown in Table 1 and Table 2. Aβ production is determined using ELISA.

[2] = system: CHO cells over-expressing human wild-type APP (CHO/APPwt); assay: Aβ and sAPPα production in cultured media of CHO/APPwt cells by ELISA (24 hours); assay type: cell-based, Chinese hamster; settings: 20 μg/mL
Protocol: as §1
as §2, with “In order to determine the inhibitory effects of TAT-APPsweBBP on BACE1-mediated APP β-cleavage and subsequent Aβ production, both CHO/APPwt and CHO/APPswe cells were plated in 24 well-plates (3×10^5/well) and treated with TAT-APPsweBBP at 0-20 μM for 24 hours.” left out
as §3, §4

[3] = target: BACE1 (Homo sapiens, UniProt P56817); assay: BACE1 activity assay (FRET, cell-free); assay type: biochemical; set-up: purchased Pan Vera Co., Madison, Wis., USA; settings: peptide final concentration 20 μM, 90 minutes, room temperature
Protocol: BACE1 Activity Assay—The BACE1 inhibiting activity of APP-based BACE1 site binding peptides were determined using a fluorescence resonance energy transfer (FRET) assay (Pan Vera Co., Madison, Wis., USA), which employs a recombinant baculovirus-expressed BACE1 and a specific substrate (Rh-[…]-quencher) that is based on the APPswe mutation. This specific peptide substrate becomes highly fluorescent upon enzymatic cleavage. A mixture of 10 μL of BACE1 (1.0 U/mL in 50 mM Tris, pH7.5, 10% glycerol), 10 μL of FRET-substrate, and 10 μL of the various APP-based BACE1 site binding peptides (final concentration 20 μM) were incubated for 90 minutes in the dark at room temperature. Then, 10 μL of BACE1 stop buffer (2.5 M sodium acetate) was added to the mixture. Fluorescence was read using a fluorometer, with excitation at 545 nm and emission at 585 nm.
As a required enzyme for the generation of neurotoxic Aβ from APP, BACE1 is well established as an important mediator of AD β-amyloid pathology. As such, it has become an important target for new disease modifying therapeutics. However, since BACE1 also has important physiological roles, abolishment of the enzyme or its activity may lead to deleterious side effects as evidenced by numerous failed clinical trials discussed previously. […] Since previous studies have established a close relationship between α-helix structure and peptide-protein (or protein-protein) interactions (Azzarito, 2013; Rao et al., 2013), several APP based peptides were synthesized that might serve as a preferable substrate for BACE1. Importantly, these peptides were free of the Aβ-containing segment and, thus, cannot be amyloidogenic. In theory, these could be used to “hijack” the BACE1 processing of endogenous APP and lead to a decrease in cerebral Aβ. These BACE1 substrates and controls were incubated with recombinant BACE1 and percent of inhibition of the enzyme was calculated. […] These findings indicate that the α-helical TAT fusion domain may help to promote selective APPsweBBP proteolysis by BACE1, yielding substrate competition against human wild-type APP.

[4] = system: CHO/APPwt cells; assay: Aβ production in CHO/APPwt cells by ELISA (Example 1, 4 hours); assay type: cell-based, Chinese hamster; settings: 20 μg/mL
Protocol: To examine the effects of various Swedish Tat fusion peptides on Aβ production, human wild-type amyloid precursor protein (APP) is overexpressed in Chinese hamster ovary cells (hereinafter referred to as CHO/APPwt cells), and the cells are treated with either PBS control (Phosphate buffered saline); Swedish peptide-1 (SwePep-1), […] (also referred herein as “APPsweBBP1”) (SEQ ID NO: 5); Swedish peptide-2 (SwePep-2) (also referred herein as “APPsweBBP”), […] (SEQ ID NO: 1); Swedish Tat fusion peptide-1 (SweTatPep-1), […] (also referred herein as “APPsweBBP/TTD1”) (SEQ ID NO: 6); or Swedish Tat fusion peptide-2 (SweTatPep-2) (also referred herein as “APPsweBBP/TTD2” and “TAT-APPsweBBP”), […] (SEQ ID NO: 3). APPsweBBP is a truncated fragment of APPswe spanning 12 amino acid residues (Glu665-Arg676). TAT, an 11-amino acid-residue protein-transduction domain derived from the HIV-1 transactivator of transcription protein, was conjugated at the C-terminus of APPsweBBP and biotin was conjugated at the N-terminus.
Following treatment, Aβ production is determined utilizing ELISA and the results illustrated in FIG. 1A. SweTatPep-2, SwePep-2, SwePep-1 and SweTatPep-1 each reduce Aβ40,42 by 63-65%, 30-33%, 31-34% and 37-38%, respectively.

Chain of BACE1 (P56817 46-501): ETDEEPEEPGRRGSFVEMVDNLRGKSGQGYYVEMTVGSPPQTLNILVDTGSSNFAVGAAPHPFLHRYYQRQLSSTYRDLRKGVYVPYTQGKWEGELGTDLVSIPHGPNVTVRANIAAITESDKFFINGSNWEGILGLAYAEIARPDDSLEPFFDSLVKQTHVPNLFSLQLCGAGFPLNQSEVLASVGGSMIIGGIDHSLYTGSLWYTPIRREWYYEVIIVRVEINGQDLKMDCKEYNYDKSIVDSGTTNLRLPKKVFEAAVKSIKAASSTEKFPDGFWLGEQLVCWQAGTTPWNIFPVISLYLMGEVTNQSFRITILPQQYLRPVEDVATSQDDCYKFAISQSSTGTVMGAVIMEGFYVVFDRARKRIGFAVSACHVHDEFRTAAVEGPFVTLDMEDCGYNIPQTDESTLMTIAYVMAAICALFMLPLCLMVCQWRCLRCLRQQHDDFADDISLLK

Sequence | Secreted Aβ40 (ng/mg; mean ± SD) [1] [ng/mg] | Secreted Aβ42 (ng/mg; mean ± SD) [1] [ng/mg] | Secreted sAPPα (ng/mg; mean ± SD) [1] [ng/mg] | Secreted Aβ40 (ng/mg; mean ± SD) [2] [ng/mg] | Secreted Aβ42 (ng/mg; mean ± SD) [2] [ng/mg] | Secreted sAPPα (ng/mg; mean ± SD) [2] [ng/mg] | % of inhibition (mean ± SD) of BACE1 [3] [%] | reduction of Aβ40,42 [4]
YGRKKRRQRRRIKTEEISEVKMDAEFR (human-virus fusion) [APPwtBBP/TTD1] | 64.21 ± 12.12 | 7.82 ± 0.67 | 229.45 ± 12.73 | 9.32 ± 0.68 | 1.01 ± 0.052 | 4688.12 ± 109.65 | – | –
YGRKKRRQRRREISEVKMDAEFR (human-virus fusion) [APPwtBBP/TTD2] | 40.32 ± 8.43 | 6.78 ± 0.92 | 267.92 ± 15.88 | 6.53 ± 0.81 | 0.68 ± 0.034 | 5291.14 ± 142.75 | 21.01 ± 1.42 | –
EVNLDAEFR (listed as Homo sapiens) [APPsweBBP3] | – | 7.12 ± 0.84 | 231.26 ± 14.28 | 10.23 ± 0.73 | 0.92 ± 0.041 | 4709.43 ± 123.74 | 14.32 ± 0.04 | –
YGRKKRRQRRREVKMDAEFR (human-virus fusion) [APPwtBBP/TTD3] | 57.45 ± 13.11 | 9.56 ± 1.11 | 201.23 ± 21.23 | 10.12 ± 1.11 | – | 4699.15 ± 155.92 | – | –
YGRKKRRQRRRIKTEEISEVNLDAEFR (human-virus fusion) [APPsweBBP/TTD1] | – | 7.98 ± 0.81 | 236.32 ± 13.09 | 8.93 ± 0.82 | 0.95 ± 0.037 | 4901.54 ± 211.54 | – | 37-38%
